What was measured:
Format in all cases: in vivo
[1] = tested on: rice (Oryra sativa); assay: Test B flooded paddy test; settings: Oryza sativa, 250 g ai/ha, Flood; 0 to 100 scale where 0 is no effect and 100 is complete control; read-out: Rice plant response rating
In short: (§1)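 Response scored visually against untreated controls, 0 = no effect and 100 = complete control, 13–15 d after treatment in the greenhouse. Compounds added to paddy water held 3 cm above soil surface. Treatment given at 2-leaf stage.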

[2] = tested on: barnyardgrass (Echinochloa crus-galli); assay: Test B flooded paddy test; settings: Echinochloa crus-galli, 250 g ai/ha, Flood; 0 to 100 scale where 0 is no effect and 100 is complete control; read-out: Barnyardgrass plant response rating
In short: as §1

[3] = tested on: sedge, umbrella (small-flower umbrella sedge, Cyperus difformis); assay: Test B flooded paddy test; settings: Cyperus difformis, 250 g ai/ha, Flood; 0 to 100 scale where 0 is no effect and 100 is complete control; read-out: Sedge, Umbrella plant response rating
In short: as §1

[4] = tested on: ducksalad (Heteranthera limosa); assay: Test B flooded paddy test; settings: Heteranthera limosa, 250 g ai/ha, Flood; 0 to 100 scale where 0 is no effect and 100 is complete control; read-out: Ducksalad plant response rating
In short: as §1

[5] = tested on: ryegrass, Italian (Italian ryegrass, Lolium multiflorum); assay: Test A postemergence; settings: Lolium multiflorum, post-emergence, 240 h, 125 g ai/ha, postemergence, visual injury vs untreated controls after approx. 10 d; 0 = no effect, 100 = complete control; read-out: Ryegrass, Italian plant response rating (0 to 100 scale)
In short: (§2)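 Ratings of 0 (no effect) to 100 (complete control) come from visual comparison with untreated controls roughly 10 d after treatment. Test chemicals, formulated in a non-phytotoxic solvent mixture with surfactant, were applied either as a preemergence directed soil spray on seeded soil or postemergence to one- to two-leaf plants 2 to 10 cm tall.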

[6] = tested on: ragweed (common ragweed, Ambrosia elatior); assay: Test A postemergence; settings: Ambrosia artemisiifolia, post-emergence, 240 h, 125 g ai/ha, postemergence, visual injury vs untreated controls after approx. 10 d; 0 = no effect, 100 = complete control; read-out: Ragweed plant response rating (0 to 100 scale)
In short: as §2

[7] = tested on: giant foxtail (Setaria faberii); assay: Test A postemergence; settings: Setaria faberi, post-emergence, 240 h
In short: as §2

[8] = tested on: corn (Zea mays); assay: Test A postemergence; settings: Zea mays, post-emergence, 240 h
In short: as §2

[9] = tested on: wheat (Triticum aestivum); assay: Test A postemergence; settings: Triticum aestivum, post-emergence, 240 h, 125 g ai/ha, postemergence, visual injury vs untreated controls after approx. 10 d; 0 = no effect, 100 = complete control; read-out: Wheat plant response rating (0 to 100 scale)
In short: as §2

[10] = tested on: blackgrass (Alopecurus myosuroides); assay: Test A postemergence; settings: Alopecurus myosuroides, post-emergence, 240 h
In short: as §2

[11] = tested on: Galium (catchweed bedstraw, Galium aparine); assay: Test A postemergence; settings: Galium, post-emergence, 240 h
In short: as §2

[12] = tested on: Kochia (Kochia scoparia); assay: Test A postemergence; settings: Bassia scoparia, post-emergence, 240 h
In short: as §2

[13] = tested on: pigweed (Amaranthus retroflexus); assay: Test A postemergence; settings: Amaranthus retroflexus, post-emergence, 240 h, 125 g ai/ha, postemergence, visual injury vs untreated controls after approx. 10 d; 0 = no effect, 100 = complete control; read-out: Pigweed plant response rating (0 to 100 scale)
In short: as §2

[14] = tested on: barnyardgrass (Echinochloa crus-galli); assay: Test A postemergence; settings: Echinochloa crus-galli, post-emergence, 240 h
In short: as §2

[15] = tested on: ryegrass, Italian (Italian ryegrass, Lolium multiflorum); assay: Test A preemergence; settings: Lolium multiflorum, pre-emergence, 240 h, 0 to 100 scale where 0 is no effect and 100 is complete control, read-out: Ryegrass, Italian plant response rating
In short: as §2

[16] = tested on: ragweed (common ragweed, Ambrosia elatior); assay: Test A preemergence; settings: Ambrosia artemisiifolia, pre-emergence, 240 h, 0 to 100 scale where 0 is no effect and 100 is complete control, read-out: Ragweed plant response rating
In short: as §2

[17] = tested on: giant foxtail (Setaria faberii); assay: Test A preemergence; settings: Setaria faberi, pre-emergence, 240 h, 0 to 100 scale where 0 is no effect and 100 is complete control, read-out: Foxtail, Giant plant response rating
In short: as §2

[18] = tested on: Kochia (Kochia scoparia); assay: Test A preemergence; settings: Bassia scoparia, pre-emergence, 240 h, 0 to 100 scale where 0 is no effect and 100 is complete control, read-out: Kochia plant response rating
In short: as §2

[19] = tested on: pigweed (Amaranthus retroflexus); assay: Test A preemergence; settings: Amaranthus retroflexus, pre-emergence, 240 h, 0 to 100 scale where 0 is no effect and 100 is complete control, read-out: Pigweed plant response rating
[20] = tested on: barnyardgrass (Echinochloa crus-galli); assay: Test A preemergence; settings: Echinochloa crus-galli, pre-emergence, 240 h, 0 to 100 scale where 0 is no effect and 100 is complete control, read-out: Barnyardgrass plant response rating
In short: as §2

[21] = 125 g ai/ha, preemergence, visual injury rating, approximately 10 d

SMILES: Cc1ccc([C@H]2CN(C)C(=O)[C@@H]2C(=O)Nc2cccc(F)c2C)cc1 [Compound 1186]
- pest or weed control at 250 g/ha [1]: 30%
- pest or weed control at 250 g/ha [2]: 75%
- pest or weed control at 250 g/ha [3]: 0%
- pest or weed control at 250 g/ha [4]: 60%
- pest or weed control at 125 g/ha [5]: 50%
- pest or weed control at 125 g/ha [6]: 70%
- pest or weed control at 125 g/ha ([7]; 125 g ai/ha, postemergence, visual injury vs untreated controls after approx. 10 d, 0 = no effect, 100 = complete control, read-out: Foxtail, Giant plant response rating (0 to 100 scale)): 90%
- pest or weed control at 31 g/ha ([7]; Postemergence, 31 g ai/ha, visual injury after approx. 10 d, 0 to 100 scale, 0 no effect, 100 complete control, read-out: Plant response rating, Foxtail, Giant): 90%
- plant injury at 125 g/ha ([8]; 125 g ai/ha, postemergence, visual injury vs untreated controls after approx. 10 d, 0 = no effect, 100 = complete control, read-out: Corn plant response rating (0 to 100 scale)): 80%
- Corn plant response rating (crop injury, 0 = no effect, 100 = complete kill) at 31 g/ha ([8]; Postemergence, 31 g ai/ha, visual injury after approx. 10 d, 0 to 100 scale, 0 no effect, 100 complete control): 30%
- plant injury at 125 g/ha [9]: 60%
- pest or weed control at 125 g/ha ([10]; 125 g ai/ha, postemergence, visual injury vs untreated controls after approx. 10 d, 0 = no effect, 100 = complete control, read-out: Blackgrass plant response rating (0 to 100 scale)): 80%
- pest or weed control at 31 g/ha ([10]; Postemergence, 31 g ai/ha, visual injury after approx. 10 d, 0 to 100 scale, 0 no effect, 100 complete control, read-out: Plant response rating, Blackgrass): 70%
- pest or weed control at 125 g/ha ([11]; 125 g ai/ha, postemergence, visual injury vs untreated controls after approx. 10 d, 0 = no effect, 100 = complete control, read-out: Galium plant response rating (0 to 100 scale)): 60%
- pest or weed control at 31 g/ha ([11]; Postemergence, 31 g ai/ha, visual injury after approx. 10 d, 0 to 100 scale, 0 no effect, 100 complete control, read-out: Plant response rating, Galium): 50%
- pest or weed control at 125 g/ha ([12]; 125 g ai/ha, postemergence, visual injury vs untreated controls after approx. 10 d, 0 = no effect, 100 = complete control, read-out: Kochia plant response rating (0 to 100 scale)): 60%
- pest or weed control at 31 g/ha ([12]; Postemergence, 31 g ai/ha, visual injury after approx. 10 d, 0 to 100 scale, 0 no effect, 100 complete control, read-out: Plant response rating, Kochia): 20%
- pest or weed control at 125 g/ha [13]: 0%
- pest or weed control at 125 g/ha ([14]; 125 g ai/ha, postemergence, visual injury vs untreated controls after approx. 10 d, 0 = no effect, 100 = complete control, read-out: Barnyardgrass plant response rating (0 to 100 scale)): 100%
- pest or weed control at 31 g/ha ([14]; Postemergence, 31 g ai/ha, visual injury after approx. 10 d, 0 to 100 scale, 0 no effect, 100 complete control, read-out: Plant response rating, Barnyardgrass): 100%
- pest or weed control at 31 g/ha ([15]; 31 g ai/ha, Preemergence): 20%
- pest or weed control at 125 g/ha [15, 21]: 70%
- pest or weed control at 31 g/ha ([16]; 31 g ai/ha, Preemergence): 0%
- pest or weed control at 125 g/ha [16, 21]: 60%
- pest or weed control at 31 g/ha ([17]; 31 g ai/ha, Preemergence): 100%
- pest or weed control at 125 g/ha [17, 21]: 100%
- pest or weed control at 31 g/ha ([18]; 31 g ai/ha, Preemergence): 70%
- pest or weed control at 125 g/ha [18, 21]: 80%
- pest or weed control at 31 g/ha ([19]; 31 g ai/ha, Preemergence): 30%
- pest or weed control at 125 g/ha [19, 21]: 70%
- pest or weed control at 31 g/ha ([20]; 31 g ai/ha, Preemergence): 90%
- pest or weed control at 125 g/ha [20, 21]: 100%

Reference: patent US12077503B2, “Substituted cyclic amides and their use as herbicides” (FMC CORPORATION, priority 2015, dated 2024)
